In the NIST ThermoML archive (doi:10.1016/j.jct.2019.03.008):

How the values were obtained:
[1] = Boiling temperature at pressure P; details: Liquid, DSC
[2] = Crystal; DTA

Oc1ccccc1O [1,2-benzenediol]
[1]
Details | Boiling temperature at pressure P [°C]
2.95 kPa | 139.1
3.93 kPa | 145.5
4.93 kPa | 150.7

Oc1cccc(O)c1 [1,3-benzenediol]
[1]
Details | Boiling temperature at pressure P [°C]
2.95 kPa | 171.6
3.93 kPa | 178.2
4.93 kPa | 183.7

CCCCCCc1ccc(O)cc1O [1,3-dihydroxy-4-hexylbenzene]
Details | Normal melting temperature [°C]
[2] | 67.0

[1]
Details | Boiling temperature at pressure P [°C]
1.95 kPa | 201.0
2.95 kPa | 211.0
3.87 kPa | 218.7
5.42 kPa | 227.1
7.89 kPa | 238
9.9 kPa | 244.6
19.83 kPa | 267
29.78 kPa | 281.4
49.68 kPa | 301.2
69.58 kPa | 315.0
79.52 kPa | 321.4
100.93 kPa | 332.4
198.33 kPa | 364.4
223.29 kPa | 371.5
250.21 kPa | 378

CCCc1c(O)cccc1O [2-propylresorcinol]
Details | Normal melting temperature [°C]
[2] | 104.8

[1]
Details | Boiling temperature at pressure P [°C]
9.92 kPa | 197.5
19.83 kPa | 218.2
29.79 kPa | 231.6
49.69 kPa | 250.2
69.61 kPa | 263.2
98.91 kPa | 278.0
198.31 kPa | 309.6
299.37 kPa | 332.2
400.46 kPa | 345.8

CCc1ccc(O)cc1O [4-ethylresorcinol]
Details | Normal melting temperature [°C]
[2] | 97.2

[1]
Details | Boiling temperature at pressure P [°C]
9.92 kPa | 207.4
19.87 kPa | 228.2
29.79 kPa | 241.4
49.73 kPa | 259.6
69.64 kPa | 272.6
98.43 kPa | 287.0
198.31 kPa | 318.6
299.37 kPa | 339.8
400.09 kPa | 356.2
